Laboratory results: patent publication US20240287048A1, “SUBSTITUTED ACYL SULFONAMIDES FOR TREATING CANCER” (The Broad Institute, Inc., priority 2020, published 2024)

Key:
ZR-75-1 cells = assay: Proliferation assay in ZR-75-1 cells; format: cell-based; conditions: Homo sapiens, 144 h, Alamar Blue, read-out: ZR75-1 proliferation assay, EC50[M] (arithmetic mean)
Excerpt: (§1) For compound characterization cell survival assays were routinely run in two cell lines. ZR-75-1 is a breast carcinoma cell line containing a focal KAT6A amplification and high KAT6A protein expression. Proliferation of this cell line is inhibited upon treatment with KAT6A inhibitors. As a negative control cell line MDA-MB-436 were used. These cells carry a […] deletion of the KAT6A gene, have a low KAT6A protein expression and are not growth inhibited upon treatment with KAT6A inhibitors.
(§2) For measurements cell lines were plated at the below indicated concentration per […] in 96-well plates in a humidified incubator at 37° C. and 5% CO2.
(§3) ZR-75-1 (ATCC, CRL-1500; breast carcinoma); 3000 cells per well; culture medium: RPMI 1640 (Biochrom #FG 1215) medium containing 2.5% FBS (Biochrom #S0615). LCLC-97TM1 (DSMZ, ACC 388; large cell lung carcinoma); 6000 cells per well; culture medium: RPMI 1640 (Biochrom #FG 1215) medium containing 2.5% FBS (Biochrom #S0615). MDA-MB-436 (CLS, 300278; breast adenocarcinoma); 3000 cells per well; culture medium: DMEM/Ham's F12 (Biochrom #FG 4815) medium containing 2.5% FBS (Biochrom #S0615).
(§4) Each sample was prepared as triplicate and rim wells were excluded. Plates were incubated at 37° C. and 5% CO2 for 144 h. Cell viability was measured by adding 10 μL of Alamar Blue Reagent (Invitrogen #DAL 1100) and plates were incubated for 2 h at 37° C. and 5% CO2. Fluorescence was measured at 590 nm wavelength with a Tecan Spark or Victor X3 MTP-Reader (PerkinElmer).

KAT6B = biological target: T1, KAT6B (Homo sapiens, UniProt Q8WYB5); assay: Kat6b activity assay (TR-FRET, acetylation of biotinylated histone H4 peptide); format: biochemical; conditions: recombinant human GST-tagged Kat6b (431-end), 30 mins at 22° C., read-out: KAT6B activity assay IC50 [mol/l] (arithmetic mean)
T1 construct: fused on or other part: N-terminal GST tag
T1 sequence (Q8WYB5 723-2073 limits assumed): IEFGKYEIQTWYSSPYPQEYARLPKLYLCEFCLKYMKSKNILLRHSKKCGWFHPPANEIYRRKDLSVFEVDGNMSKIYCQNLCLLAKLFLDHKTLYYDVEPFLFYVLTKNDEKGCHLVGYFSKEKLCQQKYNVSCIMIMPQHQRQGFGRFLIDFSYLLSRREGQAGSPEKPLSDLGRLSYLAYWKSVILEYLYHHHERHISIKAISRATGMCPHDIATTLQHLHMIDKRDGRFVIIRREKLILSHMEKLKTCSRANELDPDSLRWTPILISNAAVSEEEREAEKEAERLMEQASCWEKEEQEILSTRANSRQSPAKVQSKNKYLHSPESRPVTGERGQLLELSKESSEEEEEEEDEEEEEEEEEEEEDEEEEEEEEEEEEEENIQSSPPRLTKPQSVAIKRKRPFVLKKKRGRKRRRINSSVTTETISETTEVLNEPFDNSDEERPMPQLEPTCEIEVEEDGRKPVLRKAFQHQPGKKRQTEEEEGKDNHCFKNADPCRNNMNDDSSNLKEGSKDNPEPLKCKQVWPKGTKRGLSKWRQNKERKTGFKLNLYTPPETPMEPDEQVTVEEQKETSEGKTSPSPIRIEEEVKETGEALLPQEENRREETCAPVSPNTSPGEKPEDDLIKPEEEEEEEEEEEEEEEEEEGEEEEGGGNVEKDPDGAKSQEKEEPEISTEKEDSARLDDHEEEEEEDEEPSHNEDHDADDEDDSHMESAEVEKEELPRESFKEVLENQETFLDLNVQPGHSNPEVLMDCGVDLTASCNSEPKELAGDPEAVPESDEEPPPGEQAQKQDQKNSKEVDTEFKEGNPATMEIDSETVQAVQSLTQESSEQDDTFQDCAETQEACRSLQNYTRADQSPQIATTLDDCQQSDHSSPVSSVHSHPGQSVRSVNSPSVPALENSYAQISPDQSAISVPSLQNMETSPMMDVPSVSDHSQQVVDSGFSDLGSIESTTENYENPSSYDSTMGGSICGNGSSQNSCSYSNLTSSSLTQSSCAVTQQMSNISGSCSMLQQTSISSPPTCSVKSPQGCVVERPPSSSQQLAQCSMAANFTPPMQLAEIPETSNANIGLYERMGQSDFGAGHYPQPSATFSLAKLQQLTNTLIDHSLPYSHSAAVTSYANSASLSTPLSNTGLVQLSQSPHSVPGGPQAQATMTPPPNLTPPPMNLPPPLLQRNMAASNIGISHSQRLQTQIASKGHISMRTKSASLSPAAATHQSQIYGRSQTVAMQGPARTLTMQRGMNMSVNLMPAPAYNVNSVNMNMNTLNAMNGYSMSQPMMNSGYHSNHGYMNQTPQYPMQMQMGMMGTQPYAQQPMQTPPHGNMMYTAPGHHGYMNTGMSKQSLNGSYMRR
Excerpt: Kat6b inhibitory activities of the compounds described in the present invention were quantified using a Fluorescence Resonance Energy Transfer (TR-FRET) assay which measures acetylation of a synthetic, biotinylated Histone-H4-derived peptide by the enzyme.
Recombinant human GST-tagged Kat6b protein (431-end, N-terminal GST-tag), purified from Baculovirus-infected insect cells (Sf9), was purchased from SignalChem (#K315-381BG). Histone H4 peptide (amino acids 1-24, […]-VLRD-K(Btn)-amide), which was used as substrate, was synthesized by Biosyntan GmbH, Berlin, Germany. Acetyl Coenzyme A was purchased from Sigma-Aldrich (#A-2056).
Kat6b was incubated for 30 mins at 22° C. in the presence of different concentrations of test substances (0 μM, and within the range 0.01-20 μM) in assay buffer [25 mM Tris/HCl pH 8, 1 mM EGTA, 2.5 mM Glutathion, 0.02% Chicken Albumin, 0.05% Pluronic F127, 25 mM NaCl, 500 nM H4 peptide and 600 nM Acetyl Coenzyme A].
The reaction was stopped by addition of Detection Solution (25 mM HEPES pH 7.5, 0.1% BSA, 22 nM SAXL665 (Cisbio #610SAXLE), 100 μM Anacardic Acid (Enzo #ALX-270-381), 1 nM Anti-Histone H4 (ACETYL K8) Antibody (ABCAM #AB15823), 0.5 nM Anti-Rabbit IgG Eu (Perkin Elmer #AD0083).
The fluorescence emission at 620 nm and 665 nm after excitation at 330-350 nm was measured in a TR-FRET measuring instrument, for instance a Rubystar or a Pherastar (both from BMG Lab Technologies, Offenburg, Germany) or a Viewlux (Perkin-Elmer). The ratio of the emission at 665 nm and at […] was used as indicator of the amount of acetylated peptide.
The resulting data (ratio) were normalized, taking 0% inhibition as the mean value of control measurements where all reagents were included. In this case 50 nl DMSO were used instead of compounds. […] IC50 values were determined by regression analysis based on a 4 parameter equation (minimum, maximum, ICM, Hill; Y=Max+(Min−Max)/(1+(X/ICso) Hill) using the Screener Software (Genedata).

KAT6A = biological target: T2, KAT6A (Homo sapiens, UniProt Q92794); assay: Kat6a activity assay (TR-FRET, acetylation of biotinylated histone H4 peptide); format: biochemical; conditions: recombinant human His-tagged Kat6a (amino acids 194-810), 60 mins at 22° C., read-out: KAT6A-DPF/HAT domain IC50 [mol/l] (arithmetic mean)
T2 construct: Recombinant human His-tagged Kat6a protein (amino acids 194-810); His; made in house; host or cells: Baculovirus-infected Sf9 insect cells
T2 sequence (Q92794 194-810): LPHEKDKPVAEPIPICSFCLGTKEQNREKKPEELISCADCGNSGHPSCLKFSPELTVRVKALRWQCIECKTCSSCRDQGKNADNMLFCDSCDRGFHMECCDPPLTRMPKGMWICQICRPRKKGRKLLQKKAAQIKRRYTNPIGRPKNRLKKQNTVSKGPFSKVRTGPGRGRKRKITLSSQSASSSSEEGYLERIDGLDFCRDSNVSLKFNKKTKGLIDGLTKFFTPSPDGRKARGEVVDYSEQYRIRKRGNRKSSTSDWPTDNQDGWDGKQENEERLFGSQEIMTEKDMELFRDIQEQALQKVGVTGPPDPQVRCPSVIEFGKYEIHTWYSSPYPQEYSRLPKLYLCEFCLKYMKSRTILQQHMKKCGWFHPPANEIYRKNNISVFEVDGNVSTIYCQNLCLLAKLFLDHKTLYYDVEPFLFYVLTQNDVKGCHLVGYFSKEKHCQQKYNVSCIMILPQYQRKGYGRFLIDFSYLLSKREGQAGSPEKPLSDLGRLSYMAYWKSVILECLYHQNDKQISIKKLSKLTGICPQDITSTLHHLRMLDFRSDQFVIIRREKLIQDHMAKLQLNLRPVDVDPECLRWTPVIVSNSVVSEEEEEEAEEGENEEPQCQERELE
Method in brief: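 His-tagged human Kat6a (aa 194-810, Sf9-expressed) with compound (0.01-20 μM) for 60 min at 22° C., pH 8 Tris buffer, 220 nM biotinylated H4 peptide (aa 1-24) and 600 nM acetyl-CoA. Acetyl-K8 detected by Eu-antibody/SA-XL665 TR-FRET (665/620 nm ratio); IC50 from 4-parameter fit.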

[1] = test system: ESR1 transcription in MVLN cells; assay: Repression of ESR1 transcription, MVLN luciferase reporter assay; format: cell-based; conditions: Homo sapiens, luciferase signal after 24 h, read-out: MVLN reporter assay, IC50[M] (arithmetic mean)
Method in brief: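 MVLN cells stably carry an ER-responsive vitellogenin A2 element driving luciferase. After 24 h of compound treatment, luciferase was read in lysate as the measure of ERα transcription. Alamar Blue fluorescence (530/590 nm, 2 h) was read first to control for cell loss; samples were run in duplicate.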

MDA-MB-436 cells = assay: Proliferation assay in MDA-MB-436 cells (negative control cell line); format: cell-based; conditions: Homo sapiens, 144 h, Alamar Blue, read-out: MDA-MB-436 proliferation assay, EC50[M] (arithmetic mean)
Excerpt: as §1, §2, §3, §4

LCLC-97TM1 cells = assay: Proliferation assay in LCLC-97TM1 cells; format: cell-based; conditions: Homo sapiens, 144 h, Alamar Blue, read-out: LCLC97TM1 proliferation assay, EC50[M] (arithmetic mean)
Procedure: as §2, §3, §4

[2] = test system: Salmonella tester strain TA1535; assay: Bacterial reverse gene mutation test Ames MPF Penta I, TA1535; format: cell-based
Excerpt: (§5) The employed commercial assay Ames MPF Penta I comprises the histidine auxotrophic Salmonella tester strains TA98, TA100, TA1535, TA1537 and two tryptophan auxotrophic tester strains E. coli wp2 (E. coli wp2 [pKM101] and E. coli wp2 uvrA, combined exposure). These strains meet the requirements of the OECD guideline 471 for testing chemicals.
(§6) Bacterial strains were exposed to various concentrations of the test compounds in a histidine (His) or tryptophane (Trp) deficient medium. As recommended by ICH S2(R1) guideline, the test was conducted in two assay conditions, with and without addition of microsomal enzymes (S9 mix), taking the potential formation of DNA reactive metabolites via xenobiotic biotransformation into account.
(§7) The potential of the test compound to induce gene mutations is assessed by comparing the control with the test compounds treated bacterial cultures.

[3] = test system: Salmonella tester strain TA98; assay: Bacterial reverse gene mutation test Ames MPF Penta I, TA98; format: cell-based
Excerpt: as §5, §6, §7

[4] = test system: E. coli wp2 (E. coli wp2 [pKM101] and E. coli wp2 uvrA, combined exposure); assay: Bacterial reverse gene mutation test Ames MPF Penta I, E. coli wp2; format: cell-based
Excerpt: as §5, §6, §7

[5] = test system: Salmonella tester strain TA1537; assay: Bacterial reverse gene mutation test Ames MPF Penta I, TA1537; format: cell-based
Excerpt: as §5, §6, §7

[6] = test system: Salmonella tester strain TA100; assay: Bacterial reverse gene mutation test Ames MPF Penta I, TA100; format: cell-based
Excerpt: as §5, §6, §7

Row | SMILES | IC50 (KAT6B) [µM] | IC50 (KAT6A) [µM] | IC50 [1] [M] | EC50 (MDA-MB-436 cells) [M] | EC50 (ZR-75-1 cells) [M] | EC50 (LCLC-97TM1 cells) [M] | Result of the bacterial reverse gene mutation test Ames MPF Penta I, TA1535 ([2]; with addition of S9 mix) | Result of the bacterial reverse gene mutation test Ames MPF Penta I, TA1535 ([2]; without addition of S9 mix) | Result of the bacterial reverse gene mutation test Ames MPF Penta I, TA98 ([3]; with addition of S9 mix) | Result of the bacterial reverse gene mutation test Ames MPF Penta I, TA98 ([3]; without addition of S9 mix) | Result of the bacterial reverse gene mutation test Ames MPF Penta I, E. coli wp2 ([4]; with addition of S9 mix) | Result of the bacterial reverse gene mutation test Ames MPF Penta I, E. coli wp2 ([4]; without addition of S9 mix) | Result of the bacterial reverse gene mutation test Ames MPF Penta I, TA1537 ([5]; with addition of S9 mix) | Result of the bacterial reverse gene mutation test Ames MPF Penta I, TA1537 ([5]; without addition of S9 mix) | Result of the bacterial reverse gene mutation test Ames MPF Penta I, TA100 ([6]; with addition of S9 mix) | Result of the bacterial reverse gene mutation test Ames MPF Penta I, TA100 ([6]; without addition of S9 mix)
1 | CCOc1ccccc1S(=O)(=O)NC(=O)c1cc2c(OC)cc(C)cc2o1 [Example 13, N-(2-Ethoxybenzene-1-sulfonyl)-4-methoxy-6-methyl-1-benzofuran-2-carboxamide] | 1.73 | 1.13 | 5.08e-06 | > 2e-05 | 1.02e-05 |  |  |  |  |  |  |  |  |  |  | 
2 | CCOc1ccccc1S(=O)(=O)NC(=O)c1cc2c(F)cc(C3CC3)cc2o1 [Example 25, 6-Cyclopropyl-N-(2-ethoxybenzene-1-sulfonyl)-4-fluoro-1-benzofuran-2-carboxamide] | 0.0284 |  | 5.42e-07 | > 2e-05 | 6.44e-07 | > 2e-05 | negative | negative | negative | negative | negative | negative | negative | negative | negative | negative
3 | CCC(C)c1ccc2cc(C(=O)NS(=O)(=O)c3ccccc3-c3ccccc3)oc2c1 (centres unmarked) [Example 27, N-([1,1′-biphenyl]-2-sulfonyl)-6-(butan-2-yl)-1-benzofuran-2-carboxamide] | 9.21 | 2.03 | > 2e-05 | > 2e-05 | > 2e-05 |  |  |  |  |  |  |  |  |  |  | 
4 | CC(C)c1ccc2cc(C(=O)NS(=O)(=O)c3ccccc3)oc2c1 [Example 56, N-(Benzenesulfonyl)-6-(propan-2-yl)-1-benzofuran-2-carboxamide] | 3.94 | 1.56 | 1.52e-05 | > 2e-05 | > 2e-05 |  |  |  |  |  |  |  |  |  |  | 
5 | CC(C)c1ccc2cc(C(=O)NS(=O)(=O)c3ccccc3Cl)oc2c1 [Example 73, N-(2-chlorobenzenesulfonyl)-6-(propan-2-yl)-1-benzofuran-2-carboxamide] | 1.78 | 1.35 | 8.69e-06 | > 2e-05 | 7.08e-06 | > 2e-05 |  |  |  |  |  |  |  |  |  | 

Now from value to molecule, other results behind:

Row | IC50 (KAT6B) [µM] | IC50 (KAT6A) [µM] | IC50 [1] [M] | EC50 (MDA-MB-436 cells) [M] | SMILES | EC50 (ZR-75-1 cells) [M] | EC50 (LCLC-97TM1 cells) [M] | Result of the bacterial reverse gene mutation test Ames MPF Penta I, TA1535 ([2]; with addition of S9 mix) | Result of the bacterial reverse gene mutation test Ames MPF Penta I, TA1535 ([2]; without addition of S9 mix) | Result of the bacterial reverse gene mutation test Ames MPF Penta I, TA98 ([3]; with addition of S9 mix) | Result of the bacterial reverse gene mutation test Ames MPF Penta I, TA98 ([3]; without addition of S9 mix) | Result of the bacterial reverse gene mutation test Ames MPF Penta I, E. coli wp2 ([4]; with addition of S9 mix) | Result of the bacterial reverse gene mutation test Ames MPF Penta I, E. coli wp2 ([4]; without addition of S9 mix) | Result of the bacterial reverse gene mutation test Ames MPF Penta I, TA1537 ([5]; with addition of S9 mix) | Result of the bacterial reverse gene mutation test Ames MPF Penta I, TA1537 ([5]; without addition of S9 mix) | Result of the bacterial reverse gene mutation test Ames MPF Penta I, TA100 ([6]; with addition of S9 mix) | Result of the bacterial reverse gene mutation test Ames MPF Penta I, TA100 ([6]; without addition of S9 mix)
6 | 0.22 | 0.0905 | 2.5e-06 | > 2e-05 | Cc1cc(C)c2cc(C(=O)NS(=O)(=O)c3ccccc3-c3ccccc3)oc2c1 [Example 9, N-([1,1′-biphenyl]-2-sulfonyl)-4,6-dimethyl-1-benzofuran-2-carboxamide] | 1.81e-05 |  |  |  |  |  |  |  |  |  |  | 
7 | 1.12 | 0.933 | 1e-05 | > 2e-05 | COc1cc(C)cc2oc(C(=O)NS(=O)(=O)c3ccccc3-c3ccccc3)cc12 [Example 10, N-([1,1′-biphenyl]-2-sulfonyl)-4-methoxy-6-methyl-1-benzofuran-2-carboxamide] | 1.39e-05 |  |  |  |  |  |  |  |  |  |  | 
8 | 0.299 | 0.0635 | 5.85e-06 | 1.42e-05 | Cc1cc(C)c2cc(C(=O)NS(=O)(=O)c3ccccc3-c3cccc(Cl)c3)oc2c1 [Example 11, N-(3′-chloro[1,1′-biphenyl]-2-sulfonyl)-4,6-dimethyl-1-benzofuran-2-carboxamide] | 1.17e-05 |  |  |  |  |  |  |  |  |  |  | 
9 | 0.372 | 0.401 | 6.05e-06 | > 2e-05 | COc1cc(C)cc2oc(C(=O)NS(=O)(=O)c3ccc(C)cc3-c3ccccc3)cc12 [Example 12, 4-Methoxy-6-methyl-N-(5-methyl[1,1′-biphenyl]-2-sulfonyl)-1-benzofuran-2-carboxamide] | 1.03e-05 |  |  |  |  |  |  |  |  |  |  | 
10 | 0.0531 | 0.0271 | 1.17e-06 | > 2e-05 | Cc1cc(C)c2cc(C(=O)NS(=O)(=O)c3cccc4ccc(C)nc34)oc2c1 [Example 21, 4,6-Dimethyl-N-(2-methylquinoline-8-sulfonyl)-1-benzofuran-2-carboxamide] | 1.61e-06 | 3.47e-06 |  |  |  |  |  |  |  |  |  | 
11 | 0.667 | 0.464 | 3.02e-06 | > 2e-05 | CC(C)c1ccc2cc(C(=O)NS(=O)(=O)c3ccccc3-c3ccccc3)oc2c1 [Example 54, N-{[1,1′-Biphenyl]-2-sulfonyl}-6-(propan-2-yl)-1-benzofuran-2-carboxamide] | 5.75e-06 | > 2e-05 |  |  |  |  |  |  |  |  |  | 
